Values of other authors, collected in article PMC4357254, “Molecular cloning and characterization of the allatotropin precursor and receptor in the desert locust, Schistocerca gregaria” (Frontiers in Neuroscience, 2015).
Where no end group is shown, it is not given here.

Legend:
T. castaneum receptor = details: ref Vuerinckx et al., [2011]
Description: (§1) ATs exert effects on their cellular targets by binding to receptors with high affinity binding sites that are members of the family of rhodopsin-like G protein-coupled receptors (GPCRs). The AT receptors (ATRs) are orthologous to vertebrate orexin/hypocretin receptors. To date, five ATRs have been characterized; namely the neuropeptide 16 receptor in Bombyx mori (Yamanaka et al., [2008]), the receptors of M. sexta (Horodyski et al., [2011]), Tribolium castaneum (Vuerinckx et al., [2011]), Aedes aegypti (Nouzova et al., [2012]) and Bombus terrestris (Verlinden et al., [2013]). The first three w ...

ATR of M. sexta = details: ref Horodyski et al., [2011]
Description: as §1

[1] = system: neuropeptide 16 receptor in Bombyx mori; details: ref Yamanaka et al., [2008]
Description: as §1

[2] = system: ATR receptor of B. terrestris; details: ref Verlinden et al., [2013]
Description: as §1

corpora allata (CA) = details: in vitro; ref Kataoka et al., [1989]
Description: Allatotropin (AT) was originally identified as an amidated tridecapeptide isolated from the nervous system of the lepidopteran Manduca sexta. […] Most ATs have a conserved C-terminal pentapeptide that consists of a TARGFa motif although the hymenopteran AT has an exceptional TAYGFa C-terminal (Veenstra et al., [2012]). There are also AT-like peptides (ATLs) that contain more variation in their C-terminal motif but t ...

activation of T. castaneum ATR (T. castaneum receptor): dose-dependently activated | activation of B. mori neuropeptide 16 receptor [1]: dose-dependently activated | activation of B. terrestris ATR [2]: responded | concentrations needed for activation of B. terrestris ATR ([2]; relative to other ATRs): much higher concentrations were needed
Substance: Manse-AT: amidated tridecapeptide isolated from the nervous system of the lepidopteran Manduca sexta (GFKNVEMMTARGF-NH2; UniProt P21786 37-49, looked up)
activation of M. sexta ATR (ATR of M. sexta): dose-dependently activated | JH biosynthesis in the corpora allata (corpora allata (CA)): stimulate juvenile hormone (JH) biosynthesis
